Source: US20260217701A1, “SELECTIVE BET INHIBITORS AND USES THEREOF” (Tay Therapeutics Limited, priority 2022, published 2026)
Several values for one entry are separate records, joined by “and”; a condition that tells them apart may be missing. Equal values may be shown once.

Legend:
[1] = system: collagen-induced arthritis; test: CIA model: histopathologic analysis of hind limbs; type: in vivo, Lewis rats; conditions: hind limbs, CIA induced, 8 animals examined; 10 mg/kg
From the text: Mean histopathologic scores for tissue samples from animals in Groups 1-6 are depicted in FIG. 22A, and day 21 histology scores for all animals are illustrated in FIG. 22B.

[2] = CIA study: animal body weight; conditions: for Average animal body weight / Average animal body weight percent change: CIA

## Cn1cc(-c2ccccc2)c(-c2cn(C)c(=O)c3[nH]c(-c4cnn(C(F)(F)F)c4)cc23)cc1=O [Compound A, 6-methyl-4-(1-methyl-2-oxo-5-phenyl-1,2-dihydropyridin-4-yl)-2-(1-(trifluoromethyl)-1H-pyrazol-4-yl)-1,6-dihydro-7H-pyrrolo[2,3-c]pyridin-7-one]
[1]
  Erosion/Ulcer, cartilaginous, Minimal (number of animals): 1
  Erosion/Ulcer, cartilaginous, Moderate (number of animals): 0
  Granulation tissue, Marked (number of animals): 0
  Granulation tissue, Mild (number of animals): 1
  Granulation tissue, Minimal (number of animals): 0
  Granulation tissue, Moderate (number of animals): 0
  Increased bone, periosteum, Marked (number of animals): 0
  Increased bone, periosteum, Mild (number of animals): 0
  Increased bone, periosteum, Minimal (number of animals): 0
  Increased bone, periosteum, Moderate (number of animals): 0
  Increased eroded surface, bone, Marked (number of animals): 0
  Increased eroded surface, bone, Mild (number of animals): 0
  Increased eroded surface, bone, Minimal (number of animals): 1
  Increased eroded surface, bone, Moderate (number of animals): 0
  Mixed cell inflammation, Marked (number of animals): 0
  Mixed cell inflammation, Mild (number of animals): 1
  Mixed cell inflammation, Minimal (number of animals): 0
  Mixed cell inflammation, Moderate (number of animals): 1
  No Visible Lesions (number of animals): 6
[2]; CIA + Compound A 1 mg/kg, Day 8, 1 mg/kg
  Animal body weight: 172 g and 157 g and 170 g and 161 g and 171 g and 165 g
[2]; CIA + Compound A 1 mg/kg, Day 9, 1 mg/kg
  Animal body weight: 180 g and 156 g and 175 g and 162 g and 173 g and 170 g and 169 g
[2]; CIA + Compound A 1 mg/kg, Day 10, 1 mg/kg
  Animal body weight: 178 g and 155 g and 166 g and 170 g and 176 g
[2]; CIA + Compound A 1 mg/kg, Day 11, 1 mg/kg
  Animal body weight: 180 g and 157 g and 178 g and 162 g and 170 g and 175 g and 167 g
[2]; CIA + Compound A 1 mg/kg, Day 12, 1 mg/kg
  Animal body weight: 182 g and 158 g and 176 g and 162 g and 174 g and 177 g and 165 g
[2]; CIA + Compound A 1 mg/kg, Day 13, 1 mg/kg
  Animal body weight: 180 g and 158 g and 179 g and 160 g and 174 g and 172 g and 165 g
[2]; CIA + Compound A 1 mg/kg, Day 14, 1 mg/kg
  Animal body weight: 178 g and 159 g and 179 g and 155 g and 175 g and 170 g and 168 g
[2]; CIA + Compound A 3 mg/kg, Day 8, 3 mg/kg
  Animal body weight: 160 g and 174 g and 173 g and 169 g and 163 g and 165 g and 167 g and 157 g
[2]; CIA + Compound A 3 mg/kg, Day 9, 3 mg/kg
  Animal body weight: 162 g and 171 g and 178 g and 169 g and 160 g and 163 g and 170 g
[2]; CIA + Compound A 3 mg/kg, Day 10, 3 mg/kg
  Animal body weight: 162 g and 172 g and 177 g and 170 g and 168 g and 167 g
[2]; CIA + Compound A 3 mg/kg, Day 11, 3 mg/kg
  Animal body weight: 160 g and 172 g and 178 g and 169 g and 165 g
[2]; CIA + Compound A 3 mg/kg, Day 12, 3 mg/kg
  Animal body weight: 158 g and 176 g and 170 g and 167 g and 169 g and 172 g and 165 g
[2]; CIA + Compound A 3 mg/kg, Day 13, 3 mg/kg
  Animal body weight: 162 g and 175 g and 166 g and 173 g and 157 g and 168 g and 171 g
[2]; CIA + Compound A 3 mg/kg, Day 14, 3 mg/kg
  Animal body weight: 163 g and 177 g and 170 g and 175 g and 156 g and 167 g and 158 g
[2]; CIA + Compound A 10 mg/kg, Day 8, 10 mg/kg
  Animal body weight: 162 g
[2]; CIA + Compound A 10 mg/kg, Day 9, 10 mg/kg
  Animal body weight: 164 g
[2]; CIA + Compound A 10 mg/kg, Day 10, 10 mg/kg
  Animal body weight: 165 g
[2]; CIA + Compound A 10 mg/kg, Day 11, 10 mg/kg
  Animal body weight: 164 g
[2]; CIA + Compound A 10 mg/kg, Day 12, 10 mg/kg
  Animal body weight: 163 g
[2]; CIA + Compound A 10 mg/kg, Day 13, 10 mg/kg
  Animal body weight: 163 g
[2]; CIA + Compound A 10 mg/kg, Day 14, 10 mg/kg
  Animal body weight: 164 g
[2]; Day 0, 1 mg/kg
  Average animal body weight: 163
  Average animal body weight percent change: 0.00%
[2]; Day 0, 3 mg/kg
  Average animal body weight: 166
  Average animal body weight percent change: 0.00%
[2]; Day 0, 10 mg/kg
  Average animal body weight: 162
  Average animal body weight percent change: 0.00%
[2]; Day 1, 1 mg/kg
  Average animal body weight: 166
  Average animal body weight percent change: 1.55%
[2]; Day 1, 3 mg/kg
  Average animal body weight: 165
  Average animal body weight percent change: −0.19%
[2]; Day 1, 10 mg/kg
  Average animal body weight: 164
  Average animal body weight percent change: 1.12%
[2]; Day 2, 1 mg/kg
  Average animal body weight: 163
  Average animal body weight percent change: −0.07%
[2]; Day 2, 3 mg/kg
  Average animal body weight: 165
  Average animal body weight percent change: −0.57%
[2]; Day 2, 10 mg/kg
  Average animal body weight: 163
  Average animal body weight percent change: 0.71%
[2]; Day 3, 1 mg/kg
  Average animal body weight: 165
  Average animal body weight percent change: 0.96%
[2]; Day 3, 3 mg/kg
  Average animal body weight: 163
  Average animal body weight percent change: −1.45%
[2]; Day 3, 10 mg/kg
  Average animal body weight: 163
  Average animal body weight percent change: 0.63%
[2]; Day 4, 1 mg/kg
  Average animal body weight: 165
